Assay results reported in patent US9388215B2, “Compositions and methods of using islet neogenesis peptides and analogs thereof” (SHENZHEN HIGHTIDE BIOPHARMACEUTICAL, LTD., priority 2013, dated 2016).

Assays:
[1] = Peptide stability in human plasma; type: in vitro ADME; details: 100 μg/mL, 37° C.; FIG. 4, 15
Protocol: (§1) The stability of peptides was also tested in mouse and human plasma. Briefly, a certain amount of peptides and eucatropine powder (positive control) was accurately weighed. Test compounds were dissolved in 50% methanol-water solution and diluted to 20 mg/mL, and eucatropine was dissolved in dimethylsulfoxide (DMSO) and diluted to 10 mM, as a stock solution. Eucatropine stock solution was diluted to 0.2 mM with DMSO as a working solution. A stop reagent was prepared containing 200 ng/mL midazolam and tolbutamide in acetonitrile. A volume of 300 μL of stop solution was added to each well of a 96-well deep-well plate placed on ice beforehand.
(§2) For the stability studies, peptides and eucatropine were spiked into plasma respectively, mixed well, and then 100 μL of each mixture solution was transferred into the pre-cooled stop reagent as 0 time point sample. The remaining mixtures were incubated in a 37° C. water bath with shaking at 100 rpm (n=2). The final incubation concentration was 1 for eucatropine and 100 μg/mL for all test compounds.
(§3) At desired time points, 100 μL of incubation mixture was transferred to the stop reagent to precipitate proteins. Samples were vortexed and centrifuged at RCF 5000×g for 10 minutes, and supernatant was transferred to a test plate. The samples were analyzed by LC-MS/MS.
(§4) Slope was calculated by plotting the natural logarithm of the percentage of remaining amount of test compounds and time, and T1/2 was calculated in accordance with the following formula.
For stability in human plasma, the incubation time was 0, 30, 60 and 120 min for Peptide 1, Peptide 12, Peptide 16 and eucatropine.
The stability of peptides was also tested in rat, mouse and human plasma. Briefly, a certain amount of peptides and eucatropine powder (positive control) was accurately weighed. Test compounds were dissolved in 50% methanol-water solution and diluted to 20 mg/mL, and eucatropine was dissolved in dimethylsulfoxide (DMSO) and diluted to 10 mM, as a stock solution. Eucatropine stock solution was diluted to 0.2 mM with DMSO as a working solution. […]

normal C57BL/6J mice = test: Induction of extra islet insulin positive β cell clusters (EIC) in normal C57BL/6J mice; type: in vivo, mouse
Protocol: After a 1-week acclimation, female C57BL/6J mice were randomly divided into 6 groups (n=5 per group). The control group received 10 mL/kg sterile normal saline via subcutaneous injection for 10 consecutive days. The other five groups received INGAP-PP (Peptide 1) or INGAP-PP analogs Peptide 12, Peptide 16, Peptide 29 or Peptide 31 at a dose of 50 mg/kg or 5 mg/kg per day, respectively, for the same period. On day 11, the pancreas was removed from each animal, cleared of fat and lymph nodes, weighed, and fixed in 10% neutral buffered formalin (NBF) for no longer than 24 hours before processing for morphometric analysis.
Immunohistochemistry analysis was used to assess the islet neogenic activities of peptides by measuring the number and area of extra islet insulin positive β cell clusters (EIC) of pancreatic tissues harvested from each individual group post 10 day treatment. EIC is indicative of islet neogenesis, as previously described by Lipsett and Finegood (Diabetes 51:1834-1841 (2002)).

[2] = type: physicochemical; details: pH 5
Protocol: Peptide stability in buffers was tested for INGAP-PP and selected analogs. 10 mg/mL of Peptide 1, Peptide 12, Peptide 16, Peptide 29 or Peptide 31 was dissolved in isotonic buffers with pH ranging from 4.0 to 8.0. […] Peptide 12 and Peptide 29 were stable in an isotonic phosphate buffer (pH 7.4) for more than 90 days at 4° C. (there was no sign of degradation at 90 days sample check point), and 60 days at 25° C.

[3] = Peptide stability in mouse plasma; type: in vitro ADME; details: 100 μg/mL, 37° C.; FIG. 3, 5, 14
Protocol: as §1, §2, §3, §4
For stability in mouse plasma, the incubation time was 0, 5, 15, 30 and 60 min for Peptide 1 and eucatropine; 0, 15, 30, 60, 120, 240 and 480 min for Peptide 12, Peptide 16 and Peptide 29.
In another stability study in mouse plasma, the incubation time was 0, 30, 60 and 120 min for Peptide 2 and eucatropine; 0, 30, 60, 120, 240 and 960 min for Peptide 52 and Peptide 54.
as §1, with “tested in rat, mouse and” for “tested in mouse and”
as §2, with “was 1 μM for eucatropine” for “was 1 for eucatropine”
For stability in mouse plasma, the incubation time was 0, 15, 30, 60 and 120 min for Peptide 1 and eucatropine; 0, 15, 30, 60, 120, and 240 min for Peptide 31.

[4] = Pharmacokinetics in mouse, subcutaneous bolus; type: in vivo; details: male, C57BL/6, plasma, MOUSE (SC), 25 mg/kg; for AUC(0-t): read-out: AUC(0-t); for AUC(0-inf): read-out: AUC(0-∞); for Cmax: read-out: Cmax
Protocol: (§5) After 7 days acclimation, male Sprague-Dawley (SD) rats weighing 210-250 g, or male C57BL/6 mice, weighing 19-24 g, in good health were used in the study. Peptide 1, Peptide 12 and Peptide 16 were dissolved in sterile normal saline and then they were injected via subcutaneous (sc) bolus or intravenous (iv) bolus at the dose level of 25 mg/kg. Three animals in each group were used for blood collection at the time point of 5 min, 15 min, 30 min, 1 h, 2 h, 4 h, 6 h, 8 h and 24 h post-dose. Blood samples (approximately 400 μL) were collected and placed into tubes containing EDTA-K2 and centrifuged at 8000 rpm for 6 minutes at 4° C. to separate plasma from the samples. The resulting plasma was stored frozen at −80° C. until being analyzed. Plasma concentrations of peptides were determined using tandem mass spectrometry (LC-MS/MS) analysis. A non-compartmental module of WinNonlin® Professional 5.2 (Pharsight; St. Louis Mo.), was used to calculate PK parameters. The abbreviation AUC(0-t) represents area under the curve from the time of dosing to the time of the last observation, the AUC(0-∞) represents area under the curve from the time of dosing to infinity, and the Cmax represents maximum concentration detected.

[5] = Pharmacokinetics in rat, intravenous bolus; type: in vivo; details: male, Sprague-Dawley, plasma, RAT (IV), 25 mg/kg; for AUC(0-t): read-out: AUC(0-t); for AUC(0-inf): read-out: AUC(0-∞); for Cmax: read-out: Cmax
Protocol: as §5

[6] = Pharmacokinetics in rat, subcutaneous bolus (Example VII); type: in vivo; details: male, Sprague-Dawley, plasma, RAT (SC), 25 mg/kg; for AUC(0-t): read-out: AUC(0-t); for AUC(0-inf): read-out: AUC(0-∞); for Cmax: read-out: Cmax
Protocol: as §5

Substance | stability in human plasma [1] | islet neogenesis efficacy relative to INGAP-PP (normal C57BL/6J mice; analog 5 mg/kg vs INGAP-PP 50 mg/kg, 10 days) | number of extra islet cluster (EIC) (normal C57BL/6J mice; female C57BL/6J mice, 10 days sc, INGAP-PP 50 mg/kg, analogs 5 mg/kg per day, FIG. 9A) | total area of EIC (normal C57BL/6J mice; female C57BL/6J mice, 10 days sc, INGAP-PP 50 mg/kg, analogs 5 mg/kg per day, FIG. 9B) | time stable in isotonic acetate buffer (pH 5.0) at 4° C. [2] | time stable in isotonic acetate buffer (pH 5.0) at 25° C. [2] | stability in mouse plasma [3] | AUC(0-t) [4] [ng·h/mL] | AUC(0-inf) [4] [ng·h/mL] | Cmax [4] [ng/mL] | AUC(0-t) [5] [ng·h/mL] | AUC(0-inf) [5] [ng·h/mL] | Cmax [5] [ng/mL] | AUC(0-t) [6] [ng·h/mL] | AUC(0-inf) [6] [ng·h/mL] | Cmax [6] [ng/mL]
Ac-IGLHDPSHGTLPNGS-NH2 [Peptide 31, Ac-IGLHDPSHGTLPNGS-NH2] | exhibited good stability in human plasma and were significantly more stable than INGAP-PP | comparable or improved efficacy was achieved at a dose one tenth of INGAP-PP | statistically greater than that of INGAP-PP (Peptide 1) (50 mg/kg) treated group | statistically greater than that of INGAP-PP (Peptide 1) (50 mg/kg) treated group | up to 90 days | less than 7 days | exhibited good stability in mouse plasma and was more stable than INGAP-PP | – | – | – | – | – | – | – | – | –
Ac-IGLHDPSHGTLPNGS-OH [Peptide 16, Ac-IGLHDPSHGTLPNGS-OH] | exhibited good stability in human plasma and were significantly more stable than INGAP-PP | – | – | – | up to 90 days | less than 7 days | exhibited good stability in mouse plasma and were more stable than INGAP-PP | 11400 | 11400 | 14400 | 12200 | 12200 | 45200 | 12100 | 12200 | 18900
H-IGLHDPSHGTLPNGS-OH [Peptide 1, H-IGLHDPSHGTLPNGS-OH, reference compound] | – | – | – | – | – | – | – | 54.5 | 58.3 | 141 | 21.9 | 27.1 | 48.7 | 298 | 305 | 1240
